Measured values reported in ChEMBL document CHEMBL5113500, “New brefeldin A-cinnamic acid ester derivatives as potential antitumor agents: Design, synthesis and biological evaluation” (Eur J Med Chem, 2022).

Tests used:
HepG2 [1] = assay: Antiproliferative activity against human HepG2 cells assessed as cell growth inhibition at 1 uM measured after 72 hrs by MTT assay relative to control; assay type: functional; conditions: read-out: GI
HepG2 [2] = assay: Antiproliferative activity against human HepG2 cells measured after 72 hrs by MTT assay; assay type: functional, cell-based; conditions: HepG2, 72 h
Bel-7402 = assay: Antiproliferative activity against human Bel-7402 cells measured after 72 hrs by MTT assay; assay type: functional, cell-based; conditions: Bel-7402, 72 h
HeLa = assay: Antiproliferative activity against human HeLa cells measured after 72 hrs by MTT assay; assay type: functional, cell-based
ECa-109 cell line = assay: Antiproliferative activity against human Eca-109 cells measured after 72 hrs by MTT assay; assay type: functional, cell-based; conditions: ECa-109, 72 h
PANC-1 = assay: Antiproliferative activity against human PANC-1 cells measured after 72 hrs by MTT assay; assay type: functional, cell-based; conditions: PANC-1, 72 h

Structure (SMILES) | inhibition of growth at 1 µM (HepG2 [1]) [%] | IC50 (HepG2 [2]) [nM] | IC50 (Bel-7402) [nM] | IC50 (HeLa) [nM] | IC50 (ECa-109 cell line) [nM] | IC50 (PANC-1) [nM]
Cc1cccc(/C=C/C(=O)O[C@@H]2/C=C/C(=O)O[C@@H](C)CCC/C=C/[C@@H]3C[C@H](O)C[C@H]32)c1 | 77.8 | 560 | 750 | 870 | 1090 | 370
C[C@H]1CCC/C=C/[C@@H]2C[C@H](OC(=O)/C=C/c3cccc(Cl)c3)C[C@H]2[C@H](O)/C=C/C(=O)O1 | 68.1 | 890 | 720 | 1100 | 1450 | 660
C[C@H]1CCC/C=C/[C@@H]2C[C@H](O)C[C@H]2[C@H](OC(=O)/C=C/c2cccc(F)c2)/C=C/C(=O)O1 | 68.3 | 490 | 810 | 700 | 950 | 360
C[C@H]1CCC/C=C/[C@@H]2C[C@H](O)C[C@H]2[C@H](OC(=O)/C=C/c2ccccc2)/C=C/C(=O)O1 | 64.7 | 570 | 970 | 1170 | 1120 | 420
Cc1ccc(/C=C/C(=O)O[C@@H]2C[C@H]3[C@H](O)/C=C/C(=O)O[C@@H](C)CCC/C=C/[C@@H]3C2)cc1 | 30.8 | 2870 | 2140 | 1910 | 12500 | 1350
C[C@H]1CCC/C=C/[C@@H]2C[C@H](O)C[C@H]2[C@H](OC(=O)/C=C/c2ccc(F)cc2)/C=C/C(=O)O1 | 62 | 1020 | 790 | 750 | 1140 | 570
C[C@H]1CCC/C=C/[C@@H]2C[C@H](O)C[C@H]2[C@H](OC(=O)/C=C/c2ccc(C(F)(F)F)cc2)/C=C/C(=O)O1 | 74.9 | 510 | 610 | 340 | 600 | 580
C[C@H]1CCC/C=C/[C@@H]2C[C@H](OC(=O)/C=C/c3ccc(F)cc3)C[C@H]2[C@H](OC(=O)/C=C/c2ccc(F)cc2)/C=C/C(=O)O1 | 8.1 |  |  |  |  | 
C[C@H]1CCC/C=C/[C@@H]2C[C@H](OC(=O)/C=C/c3ccc(C(F)(F)F)cc3)C[C@H]2[C@H](OC(=O)/C=C/c2ccc(C(F)(F)F)cc2)/C=C/C(=O)O1 | 4.3 |  |  |  |  | 
C[C@H]1CCC/C=C/[C@@H]2C[C@H](O)C[C@H]2[C@H](OC(=O)/C=C/c2cccc(Cl)c2)/C=C/C(=O)O1 | 77.4 | 730 | 640 | 800 | 740 | 470
C[C@H]1CCC/C=C/[C@@H]2C[C@H](O)C[C@H]2[C@H](OC(=O)/C=C/c2ccccc2Br)/C=C/C(=O)O1 | 72.5 | 520 | 640 | 740 | 1140 | 510
C[C@H]1CCC/C=C/[C@@H]2C[C@H](OC(=O)/C=C/c3ccc(F)cc3)C[C@H]2[C@H](O)/C=C/C(=O)O1 | 69.7 | 980 | 1040 | 3960 | 2860 | 670
C[C@H]1CCC/C=C/[C@@H]2C[C@H](OC(=O)/C=C/c3ccccc3F)C[C@H]2[C@H](OC(=O)/C=C/c2ccccc2F)/C=C/C(=O)O1 | 8.4 |  |  |  |  | 
C[C@H]1CCC/C=C/[C@@H]2C[C@H](OC(=O)/C=C/c3ccccc3F)C[C@H]2[C@H](O)/C=C/C(=O)O1 | 71.1 | 480 | 820 | 2790 | 2420 | 860
Cc1cccc(/C=C/C(=O)O[C@@H]2C[C@H]3[C@H](O)/C=C/C(=O)O[C@@H](C)CCC/C=C/[C@@H]3C2)c1 | 34.7 | 1890 | 3290 | 1120 | 2100 | 360
C[C@H]1CCC/C=C/[C@@H]2C[C@H](OC(=O)/C=C/c3ccccc3)C[C@H]2[C@H](O)/C=C/C(=O)O1 | 62.9 | 1250 | 1110 | 530 | 1210 | 570
C[C@H]1CCC/C=C/[C@@H]2C[C@H](OC(=O)/C=C/c3ccc(C(F)(F)F)cc3)C[C@H]2[C@H](O)/C=C/C(=O)O1 | 86.7 | 420 | 450 | 460 | 550 | 460

Structure (SMILES) | inhibition of growth at 1 µM (HepG2 [1]) [%] | IC50 (HepG2 [2]) [nM] | IC50 (Bel-7402) [nM] | IC50 (HeLa) [nM] | IC50 (ECa-109 cell line) [nM] | IC50 (PANC-1) [nM]
C[C@H]1CCC/C=C/[C@@H]2C[C@H](OC(=O)/C=C/c3ccc(N(C)C)cc3)C[C@H]2[C@H](O)/C=C/C(=O)O1 | 47 |  |  |  |  | 
C[C@H]1CCC/C=C/[C@@H]2C[C@H](OC(=O)/C=C/c3cccc(Cl)c3)C[C@H]2[C@H](OC(=O)/C=C/c2cccc(Cl)c2)/C=C/C(=O)O1 | 6.4 |  |  |  |  | 
C[C@H]1CCC/C=C/[C@@H]2C[C@H](OC(=O)/C=C/c3cccc(F)c3)C[C@H]2[C@H](O)/C=C/C(=O)O1 | 71.1 | 450 | 920 | 2740 | 2140 | 610
C[C@H]1CCC/C=C/[C@@H]2C[C@H](O)C[C@H]2[C@H](OC(=O)/C=C/c2ccccc2F)/C=C/C(=O)O1 | 58.3 | 1020 | 1060 | 1050 | 1660 | 1000
Cc1ccc(/C=C/C(=O)O[C@@H]2/C=C/C(=O)O[C@@H](C)CCC/C=C/[C@@H]3C[C@H](O)C[C@H]32)cc1 | 64 | 1500 | 970 | 1310 | 3590 | 350
COc1cc(/C=C/C(=O)O[C@@H]2C[C@H]3[C@H](O)/C=C/C(=O)O[C@@H](C)CCC/C=C/[C@@H]3C2)cc(OC)c1OC | 4.2 |  |  |  |  | 
C[C@H]1CCC/C=C/[C@@H]2C[C@H](OC(=O)/C=C/c3ccccc3Br)C[C@H]2[C@H](O)/C=C/C(=O)O1 | 70.5 | 410 | 890 | 570 | 500 | 280
C[C@H]1CCC/C=C/[C@@H]2C[C@H](OC(=O)/C=C/c3ccccc3)C[C@H]2[C@H](OC(=O)/C=C/c2ccccc2)/C=C/C(=O)O1 | 20.4 |  |  |  |  | 
C[C@H]1CCC/C=C/[C@@H]2C[C@H](OC(=O)/C=C/c3cccc(F)c3)C[C@H]2[C@H](OC(=O)/C=C/c2cccc(F)c2)/C=C/C(=O)O1 | 6.3 |  |  |  |  | 
C[C@H]1CCC/C=C/[C@@H]2C[C@H](OC(=O)/C=C/c3ccccc3Br)C[C@H]2[C@H](OC(=O)/C=C/c2ccccc2Br)/C=C/C(=O)O1 | 3.1 |  |  |  |  | 
Cc1cccc(/C=C/C(=O)O[C@@H]2C[C@@H]3[C@H](/C=C/CCC[C@H](C)OC(=O)/C=C/[C@H]3OC(=O)/C=C/c3cccc(C)c3)C2)c1 | 6 |  |  |  |  | 
C[C@H]1CCC/C=C/[C@@H]2C[C@H](OC(=O)/C=C/c3ccc4c(c3)OCO4)C[C@H]2[C@H](OC(=O)/C=C/c2ccc3c(c2)OCO3)/C=C/C(=O)O1 | 4.3 |  |  |  |  | 
Cc1ccccc1/C=C/C(=O)O[C@@H]1C[C@@H]2[C@H](/C=C/CCC[C@H](C)OC(=O)/C=C/[C@H]2OC(=O)/C=C/c2ccccc2C)C1 | 1.7 |  |  |  |  | 
Cc1ccc(/C=C/C(=O)O[C@@H]2C[C@@H]3[C@H](/C=C/CCC[C@H](C)OC(=O)/C=C/[C@H]3OC(=O)/C=C/c3ccc(C)cc3)C2)cc1 | 5.2 |  |  |  |  | 
C[C@H]1CCC/C=C/[C@@H]2C[C@H](OC(=O)/C=C/c3ccc4c(c3)OCO4)C[C@H]2[C@H](O)/C=C/C(=O)O1 | 3.7 |  |  |  |  | 
COc1cc(/C=C/C(=O)O[C@@H]2C[C@@H]3[C@H](/C=C/CCC[C@H](C)OC(=O)/C=C/[C@H]3OC(=O)/C=C/c3ccc(OCc4ccccc4)c(OC)c3)C2)ccc1OCc1ccccc1 | 2.7 |  |  |  |  | 
